One assay has as its target VcMshEN1-145 (wild type) (Vibrio cholerae, UniProt Q9KUV7). Nature of the assay: biochemical. Format: binding.
A further assay has as its target VcMshEN G40I (Vibrio cholerae, UniProt Q9KUV7, G40I). Format: binding.
For another assay, the target named is GST (Schistosoma japonicum, UniProt P08515). Description: ITC control, GST alone with c-di-GMP. It counts as binding.
For assay [1], the target named is T1, D. geothermalis PilB_2 (ABF44566 151-300) (Deinococcus geothermalis, UniProt Q1J1R8).
T1 sequence (Q1J1R8 151-300): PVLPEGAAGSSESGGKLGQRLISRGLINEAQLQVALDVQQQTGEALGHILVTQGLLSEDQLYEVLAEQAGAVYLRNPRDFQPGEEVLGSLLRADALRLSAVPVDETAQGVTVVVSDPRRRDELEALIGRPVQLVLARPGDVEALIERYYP
Nature of the assay: ITC titration of D. geothermalis PilB_2 with c-di-GMP. It counts as binding. (In general: In ITC the heat of successive injections is recorded.)

Assay [2] concerns the target D. geothermalis PilB_3 (ABF44566 301-475). Description: ITC titration of D. geothermalis PilB_3 with c-di-GMP. It counts as binding, Deinococcus geothermalis. The settings on record: ABF44566_III, ND = not detectable.
Assay [3] concerns the target T2, Moorella thermoacetica GspE (ABC19863 1-141) (Neomoorella thermoacetica, UniProt A0AAC9HIF0).
T2 sequence (A0AAC9HIF0 1-141): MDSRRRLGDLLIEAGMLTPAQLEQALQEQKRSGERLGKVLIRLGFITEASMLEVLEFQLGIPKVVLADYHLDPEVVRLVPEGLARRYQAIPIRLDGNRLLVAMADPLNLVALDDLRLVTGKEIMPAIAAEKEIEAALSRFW
Nature of the assay: ITC titration of Moorella thermoacetica GspE MshEN with c-di-GMP. Format: binding.

Another assay has as its target V. cholerae MshEN_N1-65 (Vibrio cholerae, UniProt Q9KUV7). Nature of the assay: biochemical. Format: binding.
For assay [4], the target named is Aeromonas veronii CheA (EKB11881 261-390). Format: binding. The settings on record: read-out: Dissociation constant (KD).
In assay [5] the target is MshEN analogues, diverse bacterial proteins with the c-di-GMP-binding motif. Conditions: read-out: binding constants.
Another assay deals with VcMshEN wild type. It counts as binding, Vibrio cholerae.
Assay [6] addresses P. aeruginosa PA3740 (AAG07127). Conditions: cited from earlier work.
Assay [7] deals with full-length MshE protein (ATPase). The settings on record: cited from earlier work.

Several values for one entry are separate records, joined by “and”; a condition that tells them apart may be missing. Equal entries are not always repeated. Bounds are passed on as bounds.

On to c-di-AMP, for which, on VcMshEN1-145 (wild type), the “Dissociation constant (KD)” value is reported as “non-detectable” and the KD entry was “non-detectable”.

Consider `Nc1nc2c(ncn2[C@@H]2O[C@@H]3CO[P@](=O)(O)O[C@H]4[C@@H](O)[C@H](n5cnc6c(=O)[nH]c(N)nc65)O[C@@H]4CO[P@](=O)(O)O[C@H]3[C@H]2O)c(=O)[nH]1` [c-di-GMP, Cyclic dimeric GMP], for which the Kd was 500 nM at VcMshEN1-145 (wild type); 14 nM and 13.5 nM in assay [1] (KD, middle domain of PilB (ABF44566)); 460 nM in assay [3] (read-out: Dissociation constant (KD)); 350 nM at V. cholerae MshEN_N1-65; 2600 nM in [4]; roughly 500 nM in [5]. Further, the Kd in assay [6] was roughly 30 nM. In addition, on VcMshEN G40I, the “Fold change of KD” value was 72.0. In addition, the c-di-GMP binding result at GST was “no c-di-GMP binding”. The figures for the Ligand/protein ratio (in [1]; in assay [3]; on V. cholerae MshEN_N1-65) were 1.01, 1.01 and 0.99, respectively. In assay [2], the “Dissociation constant (KD)” value was “completely lost it binding affinity”. Moreover, the “Melting temperature Tm, + c-di-GMP” value in the assay with VcMshEN wild type is listed as 71 ºC. The Melting temperature increase in the assay on VcMshEN wild type is listed as 9 º. For the same compound, the “Tm Difference (+ c-di-GMP minus absence)” value in the assay with VcMshEN wild type was 10 ºC. Also, the “Stimulation of ATPase activity by external c-di-GMP” value in assay [7] was less than 10%.

Take cGMP: in the assay on VcMshEN wild type, the “Binding to the MshEN domain” value is listed as “cannot bind”.
